Data: patent publication US20160177395A1, “BIOMARKERS FOR THE PREDICTION OF RENAL INJURY” (priority 2007, published 2016)
Several values for one entry are separate records, joined by “and”; a condition that tells them apart may be missing. Equal values may be shown once.

Test system: kidney tissues of treated or untreated rats
Experiment: Real-time qRT-PCR of marker transcripts in kidney tissue panel, discovery stage (Table 22)
Assay type: in vivo, rat
Design: AI502869_DB71_seg0 normalized Real Time PCR expression: unit not given beside the values
Conditions: listed as Cis
Protocol: Before RT preparation the RNA was treated with DNA-free (Ambion, cat. No. AM1906) DNase treatment and removal—according to manufacturer protocol. DNase procedure was repeated until no DNA is detected in a PCR reaction using the RNA samples.
The mixture is then incubated for 5 min at 65° C. and then quickly chilled on ice. Thereafter, 20 μl of 5× SuperscriptII first strand buffer (Invitrogen, Cat. No. Y00146), 9.6 μl 0.1M DTT (Invitrogen, Cat. No. Y00147) and 160 units RNasin (Promega, Cat. No. N251A) are added, and the mixture is incubated for 10 min at 25° C., followed by further incubation at 42° C. for 2 min. […] The resulting cDNA is diluted 1:20 in TE buffer (10 mM Tris pH=8, 1 mM EDTA pH=8).
cDNA (5 μl), prepared as described above, is used as a template in Real-Time PCR reactions using the SYBR Green I assay (PE Applied Biosystem) with specific primers in 100 nM concentration if not indicated otherwise and UNG Enzyme (Eurogentech or equal) Amplification is effected as follows: 50° C. for 2 min, 95° C. for 10 min, and then 40 cycles of 95° C. for 15 sec, followed by 60° C. for 1 min (if not indicated otherwise). Amplification step is followed by dissociation step. Detection is performed by using the PE Applied Biosystem SDS 7000. The cycle in which the reactions achieved a threshold level (Ct) of fluorescence is registered and is used to calculate the relative transcript quantity in the RT reactions. Non-detected samples are assigned Ct value of 41 and are calculated accordingly. The relative quantity is calculated using the equation Q=efficiencŷ-Ct. The efficiency of the PCR reaction is calculated from a standard curve, created by using serial dilutions of several reverse transcription (RT) reactions. To minimize inherent differences in the RT reaction, the resulting relative quantities are normalized to normalization factor calculated as follows: […]
The relative quantity (Q) of each housekeeping gene in each sample is calculated as described above. In order to calculate the “relative Q relative to MED” each Q for each HSKP gene is divided by the median quantity of this gene in all panel samples. To finally achieve the normalization factor of each sample the geometric mean of all four “relative Q relative to MED” was calculated. The normalization factor was then used for further calculations.
The markers of the present invention were tested with regard to their expression in a panel of kidney tissues samples from treated and control rats. Unless otherwise noted, all experimental data relates to the novel polynucleotides and proteins of the present invention, named according to the segment being tested (as expression was tested through RT-PCR as described). Tests were then performed as described in the “Materials and Experimental Procedures” section above.
The qRT-PCR measurements were normalized according to each samples normalization factor as described in “RT Preparation and Real-Time qRT-PCR Analysis” and further multiplied by a constant factor for ease of viewing.

[1] = rat kidney, day1, individual animals (F and M)
[2] = rat kidney, day1, individual animals

`N.N.[Cl][Pt][Cl]` [Cisplatin] was tested, and the “normalized Real Time PCR MUSCYCG1R_DB81_seg19-20” value (kidney, female rats, day1) was 0.86 and 0.81, the “normalized Real Time PCR RATRAB13X_DB81_seg15-17” value (kidney, female rats, day1) was 0.82 and 1.11 and 1.1 and the “normalized Real Time PCR RATRAB13X_DB81_seg22” value (kidney, female rats, day1) was 0.88 and 0.87 and 1.02. For the same compound, the “normalized Real Time PCR W33294_DB81_seg44” value (kidney, female rats, day1) was 1 and 0.95, the “normalized Real Time PCR MUSCYCG1R_DB81_seg19-20” value (kidney, female rats, day5) was 2.77 and 3.44 and 2.45 and the “normalized Real Time PCR RATRAB13X_DB81_seg15-17” value (kidney, female rats, day5) was 1.37 and 1.53. For the same compound, the “normalized Real Time PCR RATRAB13X_DB81_seg22” value (kidney, female rats, day5) was 1.71 and 1.92 and 1.99, the “normalized Real Time PCR W33294_DB81_seg23” value (kidney, female rats, day5) was 2.03 and 1.99 and 1.58 and the “normalized Real Time PCR W33294_DB81_seg44” value (kidney, female rats, day5) was 2.31 and 2.19 and 2.15. The “normalized Real Time PCR MMU09507_DB81_seg15” value (kidney, female rats, day28) was 8.1 and 6.58 and 5.53, the “normalized Real Time PCR MUSCYCG1R_DB81_seg19-20” value (kidney, female rats, day28) was 1.64 and 2.47 and 1.67 and the “normalized Real Time PCR RATRAB13X_DB81_seg15-17” value (kidney, female rats, day28) was 1.33. For the same compound, the “normalized Real Time PCR RATRAB13X_DB81_seg22” value (kidney, female rats, day28) was 0.61 and 0.65 and 0.89, the “normalized Real Time PCR W33294_DB81_seg23” value (kidney, female rats, day28) was 0.95 and 0.97 and 0.82 and the “normalized Real Time PCR MUSCYCG1R_DB81_seg19-20” value (kidney, male rats, day1) was 0.85 and 0.71 and 1.18. For the same compound, the “normalized Real Time PCR RATRAB13X_DB81_seg15-17” value (kidney, male rats, day1) was 0.73 and 0.84 and 0.98, the “normalized Real Time PCR RATRAB13X_DB81_seg22” value (kidney, male rats, day1) was 0.65 and 0.66 and 1.11 and the “normalized Real Time PCR W33294_DB81_seg23” value (kidney, male rats, day1) was 0.59 and 0.49 and 0.64. The “normalized Real Time PCR W33294_DB81_seg44” value (kidney, male rats, day1) was 0.6 and 0.84 and 0.96, the “normalized Real Time PCR MUSCYCG1R_DB81_seg19-20” value (kidney, male rats, day5) was 1.83 and 1.47 and 2.33 and the “normalized Real Time PCR RATRAB13X_DB81_seg15-17” value (kidney, male rats, day5) was 1.8 and 1.03 and 1.77. For the same compound, the “normalized Real Time PCR RATRAB13X_DB81_seg22” value (kidney, male rats, day5) was 1.53 and 1.2, the “normalized Real Time PCR W33294_DB81_seg44” value (kidney, male rats, day5) was 1.47 and 1.51 and the “normalized Real Time PCR MUSCYCG1R_DB81_seg19-20” value (kidney, male rats, day28) was 2.13 and 1.97 and 2.21. For the same compound, the “normalized Real Time PCR RATRAB13X_DB81_seg15-17” value (kidney, male rats, day28) was 0.95, the “normalized Real Time PCR RATRAB13X_DB81_seg22” value (kidney, male rats, day28) was 0.66 and 0.76 and 0.65 and the “normalized Real Time PCR W33294_DB81_seg23” value (kidney, male rats, day28) was 0.95 and 0.82 and 0.88. The “normalized Real Time PCR W33294_DB81_seg44” value (kidney, male rats, day28) was 0.83 and 0.89, the “H33998_DB71_seg19 normalized Real Time PCR” value [1] was 0.85 and 1 and 0.87 and 0.65 and 0.75 and 1.14 and the “MUSCYCG1R_DB81_seg15-17 normalized Real Time PCR” value [1] was 0.77 and 0.85 and 0.72 and 0.54 and 0.35 and 0.67. The “RATLRFI_DB71_seg9 normalized Real Time PCR” value [1] was 1.49 and 0.3 and 0.57 and 0.24 and 0.2 and 0.37, the “RATRAB13X_DB71_seg11-13 normalized Real Time PCR” value [1] was 0.91 and 1.09 and 0.87 and 1.15 and the “RNU24174_DB71_seg8 normalized Real Time PCR” value [1] was 0.57 and 0.32 and 0.36 and 0.2 and 0.27 and 0.69. For the same compound, the “W41270_DB81_seg11 normalized Real Time PCR” value [1] was 1.11 and 0.86 and 0.76 and 0.33 and 0.63 and 0.71, the “W64472_DB81_seg2 normalized Real Time PCR” value [1] was 0.8 and 0.54 and 0.55 and 0.3 and 0.51 and 0.92 and the “W83813_DB81_seg27 normalized Real Time PCR” value [1] was 1.1 and 0.97 and 0.99 and 0.5 and 0.66 and 0.94. For the same compound, the “AA686189_DB71_seg6 normalized Real Time PCR expression” value [2] was 0.7 and 0.44 and 0.66 and 0.48 and 0.42 and 0.68, the “AA799594_DB71_seg0 normalized Real Time PCR expression” value [2] was 0.39 and 0.98 and 0.59 and 0.99 and 0.87 and the “AA964541_DB71_seg0 normalized Real Time PCR expression” value [2] was 0.88 and 0.58 and 0.41 and 0.4 and 0.29 and 0.56. The “AI045075_DB71_seg6 normalized Real Time PCR expression” value [2] was 1.01 and 0.68 and 0.79 and 0.64 and 0.62 and 1.09, the “AI454051_DB71_seg0 normalized Real Time PCR expression” value [2] was 0.94 and 1.22 and 1 and 0.65 and 0.96 and 1.45 and the “AI502869_DB71_seg0 normalized Real Time PCR expression” value [2] was 0.67 and 0.78 and 0.74 and 0.87 (2×) and 0.84.
